Tested on: NCI-H1876 complex spheroid viability
Experiment: Anticancer human tumor NCI-H1876 cell line growth inhibition [LSD1];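 also: spheroids exposed to compounds for one week before readout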;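 as to viability, T/C: 100% = DMSO vehicle-treated spheroids so lower means fewer viable cells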
Settings: for IC50: curve of first compound; for viability, T/C: stronger effect = lower value
Procedure, shortened: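 Drug combinations with the LSD1 inhibitor iadademstat tested on tumor cells co-cultured as spheroids with endothelial cells and mesenchymal stem cells. Concentrations descended in half-log increments from clinical Cmax or 10 microM.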

[1] = second compound 0.1 µM, first compound 0.0316 µM
[2] = second compound 0.1 µM, first compound 0.1 µM
[3] = second compound 0.1 µM, first compound 0.316 µM
[4] = second compound 0.1 µM, first compound 1 µM
[5] = second compound 0.1 µM, first compound 3.16 µM
[6] = second compound 0.1 µM, first compound 10 µM
[7] = second compound 0.316 µM, first compound 0.0316 µM
[8] = second compound 0.316 µM, first compound 0.1 µM
[9] = second compound 0.316 µM, first compound 0.316 µM
[10] = second compound 0.316 µM, first compound 1 µM
[11] = second compound 0.316 µM, first compound 3.16 µM
[12] = second compound 0.316 µM, first compound 10 µM
[13] = second compound 1 µM, first compound 0.0316 µM
[14] = second compound 1 µM, first compound 0.1 µM
[15] = second compound 1 µM, first compound 0.316 µM
[16] = second compound 1 µM, first compound 1 µM
[17] = second compound 1 µM, first compound 3.16 µM
[18] = second compound 1 µM, first compound 10 µM
[19] = second compound 3.16 µM, first compound 0.0316 µM
[20] = second compound 3.16 µM, first compound 0.1 µM
[21] = second compound 3.16 µM, first compound 0.316 µM
[22] = second compound 3.16 µM, first compound 1 µM
[23] = second compound 3.16 µM, first compound 3.16 µM
[24] = second compound 3.16 µM, first compound 10 µM
[25] = second compound 10 µM, first compound 0.0316 µM
[26] = second compound 10 µM, first compound 0.1 µM
[27] = second compound 10 µM, first compound 0.316 µM
[28] = second compound 10 µM, first compound 1 µM
[29] = second compound 10 µM, first compound 3.16 µM
[30] = second compound 10 µM, first compound 10 µM
[31] = second compound 0.1 µM, first compound 0.00316 µM
[32] = second compound 0.1 µM, first compound 0.01 µM
[33] = second compound 0.316 µM, first compound 0.00316 µM
[34] = second compound 0.316 µM, first compound 0.01 µM
[35] = second compound 1 µM, first compound 0.00316 µM
[36] = second compound 1 µM, first compound 0.01 µM
[37] = second compound 3.16 µM, first compound 0.00316 µM
[38] = second compound 3.16 µM, first compound 0.01 µM
[39] = second compound 10 µM, first compound 0.00316 µM
[40] = second compound 10 µM, first compound 0.01 µM

CC(C)c1c(-c2ccccc2)nc2c(C#N)c[nH]n2c1=O + NC1CCC(NC2CC2c2ccccc2)CC1
IC50 (second compound 0.1 µM): 7.01 µM | IC50 (second compound 0.316 µM): 7.17 µM | IC50 (second compound 1 µM): 6.83 µM | IC50 (second compound 3.16 µM): 6.12 µM | IC50 (second compound 10 µM): 6.21 µM | viability, T/C [1]: 100% | viability, T/C [2]: 97.1% | viability, T/C [3]: 109% | viability, T/C [4]: 97% | viability, T/C [5]: 94.2% | viability, T/C [6]: 30.1% | viability, T/C [7]: 90.2% | viability, T/C [8]: 106% | viability, T/C [9]: 103% | viability, T/C [10]: 88.9% | viability, T/C [11]: 93.1% | viability, T/C [12]: 32.4% | viability, T/C [13]: 97.1% | viability, T/C [14]: 101% | viability, T/C [15]: 99.8% | viability, T/C [16]: 95.1% | viability, T/C [17]: 89.7% | viability, T/C [18]: 30.7% | viability, T/C [19]: 99% | viability, T/C [20]: 106% | viability, T/C [21]: 102% | viability, T/C [22]: 92% | viability, T/C [23]: 88.2% | viability, T/C [24]: 22.5% | viability, T/C [25]: 89.4% | viability, T/C [26]: 93.6% | viability, T/C [27]: 92.6% | viability, T/C [28]: 99.3% | viability, T/C [29]: 90.5% | viability, T/C [30]: 21.3%

CC1COCCN1c1cc(-c2ccnn2C)c2ccnc(-c3ccn[nH]3)c2n1 (stereo not given) + NC1CCC(NC2CC2c2ccccc2)CC1
IC50 (second compound 0.1 µM): 0.0199 µM | IC50 (second compound 0.316 µM): 0.0219 µM | IC50 (second compound 1 µM): 0.0191 µM | IC50 (second compound 3.16 µM): 0.0187 µM | IC50 (second compound 10 µM): 0.00968 µM | viability, T/C [31]: 86.9% | viability, T/C [32]: 70.5% | viability, T/C [1]: 34.9% | viability, T/C [2]: 25.3% | viability, T/C [3]: 23.4% | viability, T/C [4]: 12.1% | viability, T/C [33]: 83.5% | viability, T/C [34]: 79.7% | viability, T/C [7]: 35.7% | viability, T/C [8]: 28.7% | viability, T/C [9]: 11% | viability, T/C [10]: 21.8% | viability, T/C [35]: 80.5% | viability, T/C [36]: 68.3% | viability, T/C [13]: 35.9% | viability, T/C [14]: 15.2% | viability, T/C [15]: 11.6% | viability, T/C [16]: 12.7% | viability, T/C [37]: 77.4% | viability, T/C [38]: 66.8% | viability, T/C [19]: 36% | viability, T/C [20]: 16% | viability, T/C [21]: 12.4% | viability, T/C [22]: 12.7% | viability, T/C [39]: 64.5% | viability, T/C [40]: 50.2% | viability, T/C [25]: 31.1% | viability, T/C [26]: 19.9% | viability, T/C [27]: 16.7% | viability, T/C [28]: 11.4%

COc1ccc([C@@H](O)c2cc(-c3ncnc4cc(N5CCOCC5)ccc34)c(F)cc2Cl)nn1 + NC1CCC(NC2CC2c2ccccc2)CC1
IC50 (second compound 0.1 µM): 3.07 µM | IC50 (second compound 0.316 µM): 3.49 µM | IC50 (second compound 1 µM): 3.78 µM | IC50 (second compound 3.16 µM): 3.48 µM | IC50 (second compound 10 µM): 3.13 µM | viability, T/C [1]: 109% | viability, T/C [2]: 97.4% | viability, T/C [3]: 109% | viability, T/C [4]: 91.2% | viability, T/C [5]: 49.2% | viability, T/C [6]: 23.4% | viability, T/C [7]: 112% | viability, T/C [8]: 105% | viability, T/C [9]: 95.8% | viability, T/C [10]: 85.3% | viability, T/C [11]: 50.7% | viability, T/C [12]: 21.3% | viability, T/C [13]: 113% | viability, T/C [14]: 107% | viability, T/C [15]: 99.7% | viability, T/C [16]: 84.7% | viability, T/C [17]: 53.9% | viability, T/C [18]: 24.5% | viability, T/C [19]: 113% | viability, T/C [20]: 113% | viability, T/C [21]: 94.3% | viability, T/C [22]: 76.4% | viability, T/C [23]: 54.2% | viability, T/C [24]: 21.9% | viability, T/C [25]: 101% | viability, T/C [26]: 110% | viability, T/C [27]: 94.2% | viability, T/C [28]: 70.9% | viability, T/C [29]: 53.3% | viability, T/C [30]: 26%

O=C(C=Cn1cnc(-c2cc(C(F)(F)F)cc(C(F)(F)F)c2)n1)NNc1cnccn1 + NC1CCC(NC2CC2c2ccccc2)CC1
IC50 (second compound 0.1 µM): 0.0914 µM | IC50 (second compound 0.316 µM): 0.0819 µM | IC50 (second compound 1 µM): 0.0835 µM | IC50 (second compound 3.16 µM): 0.0751 µM | IC50 (second compound 10 µM): 0.0652 µM | viability, T/C [31]: 98.9% | viability, T/C [32]: 91.6% | viability, T/C [1]: 90.2% | viability, T/C [2]: 46.7% | viability, T/C [3]: 23.5% | viability, T/C [4]: 23.2% | viability, T/C [33]: 104% | viability, T/C [34]: 96.6% | viability, T/C [7]: 87.2% | viability, T/C [8]: 42.1% | viability, T/C [9]: 22.4% | viability, T/C [10]: 20.3% | viability, T/C [35]: 94.4% | viability, T/C [36]: 96% | viability, T/C [13]: 86.9% | viability, T/C [14]: 43.1% | viability, T/C [15]: 22.9% | viability, T/C [16]: 20.6% | viability, T/C [37]: 93.8% | viability, T/C [38]: 90.9% | viability, T/C [19]: 85.8% | viability, T/C [20]: 38.1% | viability, T/C [21]: 23.2% | viability, T/C [22]: 20.6% | viability, T/C [39]: 94.4% | viability, T/C [40]: 89.1% | viability, T/C [25]: 75.7% | viability, T/C [26]: 35.1% | viability, T/C [27]: 19.3% | viability, T/C [28]: 19.8%

From PubChem BioAssay AID1918957 (Molecular Pharmacology Branch, DTP, NCI, 2023)
